Columns and labels:
[1] = Volume change on mixing of 3-pentanone and RB (molar volume); type: physicochemical; details: 347 K and atmospheric pressure
[2] = IFT experiments by spinning drop tensiometer; type: physicochemical; details: 347 K
Description: IFT experiments. […] During the measurement, the denser phase was placed into a horizontal tube first, and then a droplet of the less dense phase was placed into the horizontal tube while the tube was rotating. The droplet was deformed owing to the rotation, which was visualized by using a high-power monochromatic light-emitting diode and stroboscope. The shape of a droplet spinning in the capillary tube was recorded by a high-resolution camera.
IFT values were measured for four systems: (1) crude oil and RB, (2) 3p and 1.1-wt % 3 pRB, (3) crude oil and 1.1-wt % 3 pRB, and (4) crude oil diluted by 18.6 wt % 3p and 0.8-wt % 3 pRB. System 1 was at phase equilibrium. A certain level of mass transfer was expected during the IFT measurement for the other three pseudo-binary systems. In system 2, water could transfer from 1.1-wt % 3 pRB to the 3p-rich phase. An IFT was estimated by using the densities of 3p and 1.1-wt % 3 pRB. In system 3, 3p could be transferred from RB to crude oil, which reduced the density of the oleic phase. Therefore, the upper-limit and lower-limit density values were assigned for the oleic phase to calculate a possible range of IFTs for this system. System 4 was tested to validate the range of IFT values estimated for system 3.

[3] = Spontaneous imbibition in Amott cells; details: oil diluted by 18.6 wt % 3p
[4] = Solubility of water in 3p; type: physicochemical; details: 343 K
[5] = Solubility (quantitative 1H NMR) and aqueous stability of 3-pentanone in reservoir brine; details: 347 K
[6] = Density and viscosity of 3p, 3pRB and surfactant solution; type: physicochemical; details: 347 K and atmospheric pressure
[7] = Viscosity of crude oil/3p mixtures (in-line viscometer); type: physicochemical; details: 347 K
Description: Density and viscosity experiments. […] The system consists mainly of automated pumps, a sample accumulator, an in-line fluid densitometer, an in-line viscometer, an oven, and an effluent accumulator. The pump (Teledyne ISCO 100DX) maintained the system pressure automatically by water.
In the density measuring cell (Anton Paar DMA-HPM), fluid's density is measured in a U-shaped tube, in the range from 0 to 3000 kg/m^3. The instrument precision of the density meter is ±1 kg/m^3. Anton Paar DMA-HPM uses the method of oscillating U-tube for its density measurement, in which the sample's density is calculated from the sample's period of oscillation. The in-line viscometer (ViscoPro 2100) measures the viscosity of a fluid in the range from 0.2 to 2 cp. The instrument precision of the viscometer is ±0.02 cp and repeatability is ±0.5% of the reading. During the viscosity measurement, the magnetic piston is surrounded by the fluid sample and oscillates under magnetic force. The sample's viscosity is calculated from the time required for the piston to complete a two-way cycle. The viscometer and density meter were placed in a Despatch oven (model LAC2-18-8). Light-emitting diode screens that display measured data from the fluid densitometer and viscometer were connected outside the oven. The absolute pressure of the system was measured with a pressure gauge (Omega PX459-2.5KGI-EH).
Densities and viscosities were measured for the following mixtures of crude oil and 3p: 81.4 wt % crude oil and 18.6 wt % 3p (33 mol % 3p), 59.0 wt % crude oil and 41.0 wt % 3p (60 mol % 3p), and 35.1 wt % crude oil and 64.9 wt % 3p (80 mol % 3p). Each mixture was mixed in a glass bottle with a magnetic mixer before placing it in the accumulator.
Before each measurement, the system was cleaned thoroughly with toluene. Then, the system was dried by air and evacuated. Next, the fluid mixture was pumped into the system from the accumulator. Then, the temperature in the oven was increased to 347 K. When the temperature in the oven was stable, the mixture was measured for viscosities and densities at different pressures, ranging from 101 kPa to 10342 kPa.

[8] = Miscibility of 3p with crude oil; type: physicochemical; details: room temperature, 30-95 wt % 3p
Excerpt: 3-Pentanone properties. […] The density of 3p is 760 kg/m^3 at the experimental conditions in this research (347 K and atmospheric pressure).

- volume change on mixing of 3-pentanone and RB [1]: smaller than 0.39%
- effect of 3p on IFT between oleic and aqueous phases ([2]; 1.1 wt % 3p in aqueous phase): essentially no effect
- IFT ([2]; system 2: 3p and 1.1-wt % 3pRB, atmospheric pressure): 10.02 mN/m
- solubility of water in 3p [4]: approximately 3 wt %
- 3p solubility in deionized water [5]: 2.59 wt %
- aqueous stability of 3p in RB (salt precipitation) ([5]; overall 3p 0.1-40 wt %): No salt precipitation was observed
- solubility limit of 3-pentanone in RB ([5]; reservoir brine 68722 ppm, quantitative 1H NMR): 1.1 wt %
- Density [6]: 760 kg/m^3
- μo^−1/2 of 3p-diluted oil ([7]; 33 mol % or 18.6 wt % 3p, atmospheric pressure): 1.2383 cp^−1/2
- Viscosity ([7]; crude oil with 18.6 wt % (33 mol %) 3-pentanone, 134.38 kPa): 0.6522 cp
- Viscosity ([7]; crude oil with 18.6 wt % (33 mol %) 3-pentanone, 1381.57 kPa): 0.6534 cp
- Viscosity ([7]; crude oil with 18.6 wt % (33 mol %) 3-pentanone, 3448.00 kPa): 0.6533 cp
- Viscosity ([7]; crude oil with 18.6 wt % (33 mol %) 3-pentanone, 6887.59 kPa): 0.6545 cp
- Viscosity ([7]; crude oil with 18.6 wt % (33 mol %) 3-pentanone, 10336.00 kPa): 0.6561 cp
- Viscosity ([7]; crude oil with 41.0 wt % (60 mol %) 3-pentanone, 157.89 kPa): 0.4609 cp
- Viscosity ([7]; crude oil with 41.0 wt % (60 mol %) 3-pentanone, 1375.71 kPa): 0.4604 cp
- Viscosity ([7]; crude oil with 41.0 wt % (60 mol %) 3-pentanone, 3448.00 kPa): 0.4596 cp
- Viscosity ([7]; crude oil with 41.0 wt % (60 mol %) 3-pentanone, 6889.10 kPa): 0.4613 cp
- Viscosity ([7]; crude oil with 41.0 wt % (60 mol %) 3-pentanone, 10337.52 kPa): 0.4592 cp
- Viscosity ([7]; crude oil with 64.9 wt % (80 mol %) 3-pentanone, 135.9 kPa): 0.3267 cp
- Viscosity ([7]; crude oil with 64.9 wt % (80 mol %) 3-pentanone, 1381.57 kPa): 0.3264 cp
- Viscosity ([7]; crude oil with 64.9 wt % (80 mol %) 3-pentanone, 3446.55 kPa): 0.3242 cp
- Viscosity ([7]; crude oil with 64.9 wt % (80 mol %) 3-pentanone, 6893.45 kPa): 0.3221 cp
- Viscosity ([7]; crude oil with 64.9 wt % (80 mol %) 3-pentanone, 10340.41 kPa): 0.3205 cp
- phase separation of 3p/crude oil mixtures [8]: No phase separation was observed
Structure (SMILES): CCC(=O)CC [3-pentanone]
- increase of oleic phase saturation (oil swelling) ([3]; 347 K, atmospheric pressure): 24%
- enhancement of oil recovery rate because of oil dilution by 3p (scaling theory) ([3]; spontaneous imbibition): 13%
- oil viscosity reduction ([7]; oil diluted by 18.6 wt % (33 mol %) 3-pentanone): 21%
